Laboratory results reported in ChEMBL document CHEMBL5321233, “Biological activity of 1,2,3-triazole-2-amino-1,4-naphthoquinone derivatives and their evaluation as therapeutic strategy for malaria control” (Eur J Med Chem, 2023).
Active and inactive are the calls of the source. No cut-off for these calls is given here.

What was measured:
HepG2 = test: Cytotoxicity against human HepG2 cells incubated for 24 hrs by MTT assay; assay type: functional
[1] = Acute toxicity in Albino Swiss mouse assessed as change in urine color at 300 mg/kg, po administered as single dose measured after 14 days; assay type: organism-based; details: in vivo, 336 h, time 14 day
Plasmodium falciparum [2] = test: Induction of morphological changes in chloroquine-resistant Plasmodium falciparum W2 at early trophozoite stage assessed as rounded nucleus with degenerative changes by TEM analysis; assay type: functional, organism-based
[3] = Acute toxicity in Albino Swiss mouse assessed as congestion of globular center vein in liver at 300 mg/kg, po administered as single dose measured after 14 days by H and E staining based analysis; assay type: organism-based; details: in vivo, 336 h, time 14 day
[4] = Toxicity in Albino Swiss mouse infected with Plasmodium berghei ANKA assessed as animal survival at 30 mg/kg, po administered for 4 consecutive days measured for 14 days relative to control; assay type: organism-based; details: in vivo, time 14 day
[5] = Acute toxicity in Albino Swiss mouse assessed as escape reaction at 300 mg/kg, po administered as single dose measured after 14 days; assay type: organism-based; details: in vivo, 336 h, time 14 day
[6] = Acute toxicity in Albino Swiss mouse assessed as fusion of lymphoid follicles in spleen at 300 mg/kg, po administered as single dose measured after 14 days by H and E staining based analysis; assay type: organism-based; details: in vivo, 336 h, time 14 day
Plasmodium berghei [7] = test: Antimalarial activity against Plasmodium berghei ANKA infected in Albino Swiss mouse assessed as half-survival time at 30 mg/kg, po administered for 4 consecutive days measured for 30 days (reference value: 16 day); assay type: functional; details: time 30 day
Plasmodium falciparum [8] = test: Induction of morphological changes in chloroquine-resistant Plasmodium falciparum W2 at early trophozoite stage assessed as development-limiting of plasma membrane by TEM analysis; assay type: functional, organism-based
Plasmodium falciparum [9] = test: Induction of morphological changes in chloroquine-resistant Plasmodium falciparum W2 at early trophozoite stage assessed as degenerating organelles by TEM analysis; assay type: functional, organism-based
[10] = Acute toxicity in Albino Swiss mouse assessed as distribution of hemosiderophages in parenchyma of spleen at 300 mg/kg, po administered as single dose measured after 14 days by H and E staining based analysis; assay type: organism-based; details: in vivo, 336 h, time 14 day
[11] = Acute toxicity in Albino Swiss mouse assessed as acidophilic cytoplasm with macro-vacuoles in liver at 300 mg/kg, po administered as single dose measured after 14 days by H and E staining based analysis; assay type: organism-based; details: in vivo, 336 h, time 14 day
[12] = Acute toxicity in Albino Swiss mouse assessed as mesangial cells reduction in kidney at 300 mg/kg, po administered as single dose measured after 14 days by H and E staining based analysis; assay type: organism-based; details: in vivo, 336 h, time 14 day
[13] = Acute toxicity in Albino Swiss mouse assessed as necrosis of hepatocytes at 300 mg/kg, po administered as single dose measured after 14 days by H and E staining based analysis; assay type: organism-based; details: in vivo, 336 h, time 14 day
Plasmodium falciparum [14] = test: Induction of morphological changes in chloroquine-resistant Plasmodium falciparum W2 at early trophozoite stage assessed as development-limiting of parasitophorous vacuole membrane by TEM analysis; assay type: functional, organism-based
[15] = Acute toxicity in Albino Swiss mouse assessed as change in motor function at 300 mg/kg, po administered as single dose measured after 14 days; assay type: organism-based; details: in vivo, 336 h, time 14 day
Plasmodium falciparum [16] = test: Antimalarial activity against chloroquine-resistant Plasmodium falciparum W2 infected in human erythrocytes assessed as parasite growth inhibition incubated for 48 hrs by geimsa staining based microscopy; assay type: functional, organism-based; details: W2, Erythrocyte
[17] = Acute toxicity in Albino Swiss mouse assessed as animal mortality at 300 mg/kg, po administered as single dose measured after 14 days; assay type: organism-based; details: in vivo, 336 h, time 14 day
[18] = Acute toxicity in Albino Swiss mouse assessed as signs of cyanosis at 300 mg/kg, po administered as single dose measured after 14 days; assay type: organism-based; details: in vivo, 336 h, time 14 day
[19] = Acute toxicity in Albino Swiss mouse assessed as podocytes with discrete thickening of basal membrane in kidney at 300 mg/kg, po administered as single dose measured after 14 days by H and E staining based analysis; assay type: organism-based; details: in vivo, 336 h, time 14 day
[20] = Acute toxicity in Albino Swiss mouse assessed as behavioural toxicity at 300 mg/kg, po administered as single dose measured after 14 days; assay type: organism-based; details: in vivo, 336 h, time 14 day
[21] = Acute toxicity in Albino Swiss mouse assessed as change in sensory function at 300 mg/kg, po administered as single dose measured after 14 days; assay type: organism-based; details: in vivo, 336 h, time 14 day
[22] = Acute toxicity in Albino Swiss mouse assessed as developmment-delimiting germinal center in spleen at 300 mg/kg, po administered as single dose measured after 14 days by H and E staining based analysis; assay type: organism-based; details: in vivo, 336 h, time 14 day
[23] = Acute toxicity in Albino Swiss mouse assessed as change in relative weight of kidney at 300 mg/kg, po administered as single dose measured after 14 days; assay type: organism-based; details: in vivo, 336 h, time 14 day
[24] = Acute toxicity in Albino Swiss mouse assessed as aggressiveness at 300 mg/kg, po administered as single dose measured after 14 days; assay type: organism-based; details: in vivo, 336 h, time 14 day
[25] = Hemolytic activity in human red blood cells assessed as hemoglobin release at 250 to 15.6 uM incubated for 60 mins by spectrophotometry; assay type: toxicity, cell-based, Erythrocyte; details: dose 250-15.6 µM, read-out: Activity
[26] = Acute toxicity in Albino Swiss mouse assessed as acidophilic cytoplasm with micro-steatosis in liver at 300 mg/kg, po administered as single dose measured after 14 days by H and E staining based analysis; assay type: organism-based; details: in vivo, 336 h, time 14 day
[27] = Hemolytic activity in human red blood cells type A assessed as hemoglobin release at 500 to 1000 uM incubated for 60 mins by spectrophotometry; assay type: toxicity, cell-based, Erythrocyte; details: dose 500-1000 µM, read-out: Activity
[28] = Acute toxicity in Albino Swiss mouse assessed as change in diarrhea at 300 mg/kg, po administered as single dose measured after 14 days; assay type: organism-based; details: in vivo, 336 h, time 14 day
[29] = Cytotoxicity against African green monkey Vero cells incubated for 24 hrs by MTT assay; assay type: toxicity, cell-based; details: chlorocebus sabaeus
[30] = Acute toxicity in Albino Swiss mouse assessed as change in relative weight of liver at 300 mg/kg, po administered as single dose measured after 14 days; assay type: organism-based; details: in vivo, 336 h, time 14 day
[31] = Selectivity index, ratio of CC50 for African green monkey Vero cells to IC50 for chloroquine-resistant Plasmodium falciparum W2 infected in human erythrocytes; assay type: toxicity, cell-based; details: read-out: Ratio CC50/IC50
[32] = Acute toxicity in Albino Swiss mouse assessed as granular degeneration in liver at 300 mg/kg, po administered as single dose measured after 14 days by H and E staining based analysis; assay type: organism-based; details: in vivo, 336 h, time 14 day
[33] = Acute toxicity in Albino Swiss mouse assessed as signs of hyperemia at 300 mg/kg, po administered as single dose measured after 14 days; assay type: organism-based; details: in vivo, 336 h, time 14 day
[34] = Acute toxicity in Albino Swiss mouse assessed as recurrent tubules with loss of polarity in kidney at 300 mg/kg, po administered as single dose measured after 14 days by H and E staining based analysis; assay type: organism-based; details: in vivo, 336 h, time 14 day
[35] = Acute toxicity in Albino Swiss mouse assessed as signs of toxicity at 300 mg/kg, po administered as single dose measured after 14 days; assay type: organism-based; details: in vivo, 336 h, time 14 day
[36] = Acute toxicity in Albino Swiss mouse assessed as signs of pallor at 300 mg/kg, po administered as single dose measured after 14 days; assay type: organism-based; details: in vivo, 336 h, time 14 day
[37] = Selectivity index, ratio of CC50 for human HepG2 cells to IC50 for chloroquine-resistant Plasmodium falciparum W2 infected in human erythrocytes; assay type: toxicity, cell-based; details: read-out: Ratio CC50/IC50
[38] = Acute toxicity in Albino Swiss mouse assessed as hyperplasia in spleen at 300 mg/kg, po administered as single dose measured after 14 days by H and E staining based analysis; assay type: organism-based; details: in vivo, 336 h, time 14 day
[39] = Acute toxicity in Albino Swiss mouse assessed as atrophic glomerulus with congested capillaries in kidney at 300 mg/kg, po administered as single dose measured after 14 days by H and E staining based analysis; assay type: organism-based; details: in vivo, 336 h, time 14 day
[40] = Octanol-water partition coefficient, logP of the compound; assay type: physicochemical
[41] = Acute toxicity in Albino Swiss mouse assessed as contortions at 300 mg/kg, po administered as single dose measured after 14 days; assay type: organism-based; details: in vivo, 336 h, time 14 day
Plasmodium berghei [42] = test: Antimalarial activity against Plasmodium berghei ANKA infected in Albino Swiss mouse assessed as reduction in parasitemia at 30 mg/kg, po administered for 4 consecutive days measured after day 5 relative to control; assay type: functional; design: scale not given: the % may be the effect or the level left; details: time 5 day
Plasmodium berghei [43] = test: Antimalarial activity against Plasmodium berghei ANKA infected in Albino Swiss mouse assessed as reduction in parasitemia at 30 mg/kg, po administered for 4 consecutive days measured after day 7 relative to control; assay type: functional; design: scale not given: the % may be the effect or the level left; details: time 7 day
[44] = Acute toxicity in Albino Swiss mouse assessed as congestion of hepatic portal vein in liver at 300 mg/kg, po administered as single dose measured after 14 days by H and E staining based analysis; assay type: organism-based; details: in vivo, 336 h, time 14 day
[45] = Acute toxicity in Albino Swiss mouse assessed as change in urination volume at 300 mg/kg, po administered as single dose measured after 14 days; assay type: organism-based; details: in vivo, 336 h, time 14 day
[46] = Acute toxicity in Albino Swiss mouse assessed as change in defecation at 300 mg/kg, po administered as single dose measured after 14 days; assay type: organism-based; details: in vivo, 336 h, time 14 day
[47] = Acute toxicity in Albino Swiss mouse assessed as change in relative weight of spleen at 300 mg/kg, po administered as single dose measured after 14 days; assay type: organism-based; details: in vivo, 336 h, time 14 day
[48] = Acute toxicity in Albino Swiss mouse assessed as activated macrophages in spleen at 300 mg/kg, po administered as single dose measured after 14 days by H and E staining based analysis; assay type: organism-based; details: in vivo, 336 h, time 14 day

O=C1C=C(NCCn2cc(C3(O)CCCCC3)nn2)C(=O)c2ccccc21
CC50 (HepG2): 441 µM
Activity [1]: Non-Toxic
Activity (Plasmodium falciparum [2]): Active
Activity [3]: Toxic
survival at 336 h [4]: 100%
Activity [5]: Non-Toxic
Activity [6]: Toxic
Survival (Plasmodium berghei [7]): 38.5 days
Activity (Plasmodium falciparum [8]): Active
Activity (Plasmodium falciparum [9]): Active
Activity [10]: Toxic
Activity [11]: Toxic
Activity [12]: Toxic
Activity [13]: Toxic
Activity (Plasmodium falciparum [14]): Active
Activity [15]: Non-Toxic
IC50 (Plasmodium falciparum [16]): 2.7 µM
Activity [17]: Non-Toxic
Activity [18]: Non-Toxic
Activity [19]: Toxic
Activity [20]: Non-Toxic
Activity [21]: Non-Toxic
Activity [22]: Toxic
Activity [23]: Non-Toxic
Activity [24]: Non-Toxic
hemolysis at 1 h [25]: < 40%
Activity [26]: Toxic
hemolysis at 1 h, up to 1000 µM [27]: > 40%
Activity [28]: Non-Toxic
CC50 at 24 h [29]: 1340 µM
Activity [30]: Non-Toxic
selectivity ratio [31]: 495
Activity [32]: Toxic
Activity [33]: Non-Toxic
Activity [34]: Toxic
Activity [35]: Non-Toxic
Activity [36]: Non-Toxic
selectivity ratio [37]: 163
Activity [38]: Toxic
Activity [39]: Toxic
logP [40]: 2.55
Activity [41]: Non-Toxic
Activity (Plasmodium berghei [42]): 38.5%
Activity (Plasmodium berghei [43]): 35%
Activity [44]: Toxic
Activity [45]: Non-Toxic
Activity [46]: Non-Toxic
Activity [47]: Non-Toxic
Activity [48]: Toxic
